Patent publication US20140088151A1, “ALHYDROXYMETHYL BIARYL BENZOTRIAZOLE DERIVATIVES” (priority 2011, published 2014)

Biological target: T1, recombinant human mGluR2 (Homo sapiens, UniProt Q14416)
T1 construct: expressed in transfected cells
Experiment: FLIPR Ca2+ mobilization assay, potentiation of mGluR2
Assay type: cell-based
Details: CHO dhfr- cells expressing human mGluR2 and Gα16, EC20 glutamate (900 nM)
Protocol: Potencies are determined as follows. The compounds of the present invention may be tested in a fluorescence laser imaging plate reader (FLIPR) based assay. This assay is a common functional assay to monitor Ca^2+ mobilization in whole cells expressing recombinant receptor coupled with a promiscuous G-protein. CHO dhfr− cells stably expressing recombinant human mGluR2 and Gα16 loaded with Fluo-4 AM (Invitrogen, Carlsbad Calif.) are treated with varying concentrations of compounds and the Ca^2+ response is monitored on a FLIPR384 (Molecular Devices, Sunnydale Calif.) for agonist activity. The potentiation response is monitored after a subsequent addition of an EC20 concentration of glutamate (900 nM). The maximum calcium response at each concentration of compound for agonism or potentiation are plotted as dose responses curves fitted with a four parameters logistic equation giving EC50 and Hill coefficient using the iterative non linear curve fitting software program.

T1 sequence (Q14416 19-872): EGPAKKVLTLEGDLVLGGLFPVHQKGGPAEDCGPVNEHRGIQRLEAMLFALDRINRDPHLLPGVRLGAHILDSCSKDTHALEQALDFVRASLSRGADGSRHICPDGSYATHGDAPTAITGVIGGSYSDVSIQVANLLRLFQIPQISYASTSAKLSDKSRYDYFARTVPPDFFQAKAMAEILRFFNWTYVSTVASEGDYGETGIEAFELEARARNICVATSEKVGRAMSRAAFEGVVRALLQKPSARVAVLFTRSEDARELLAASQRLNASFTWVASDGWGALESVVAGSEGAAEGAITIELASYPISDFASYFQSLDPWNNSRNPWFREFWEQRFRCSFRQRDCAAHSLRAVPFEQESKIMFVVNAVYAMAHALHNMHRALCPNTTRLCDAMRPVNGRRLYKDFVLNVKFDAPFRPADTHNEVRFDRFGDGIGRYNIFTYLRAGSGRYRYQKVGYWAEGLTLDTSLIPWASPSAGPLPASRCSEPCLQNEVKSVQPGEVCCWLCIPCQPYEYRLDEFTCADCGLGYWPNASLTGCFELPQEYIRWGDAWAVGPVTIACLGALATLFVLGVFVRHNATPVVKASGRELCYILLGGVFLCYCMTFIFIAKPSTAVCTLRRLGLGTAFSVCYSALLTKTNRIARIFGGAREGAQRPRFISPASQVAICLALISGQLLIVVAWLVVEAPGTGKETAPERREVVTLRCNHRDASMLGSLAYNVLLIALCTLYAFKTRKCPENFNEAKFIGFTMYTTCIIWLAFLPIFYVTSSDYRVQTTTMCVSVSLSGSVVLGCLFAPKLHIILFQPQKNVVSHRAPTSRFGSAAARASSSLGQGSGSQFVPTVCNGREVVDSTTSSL

Row | Structure (SMILES) | EC50 [nM]
1 | OCc1ccc(-c2ccc3c(nnn3CC3CC3)c2C(F)(F)F)c(F)n1 [Example 1, {5-[1-(Cyclopropylmethyl)-4-(trifluoromethyl)-1H-benzotriazol-5-yl]-6-fluoropyridin-2-yl}methanol] | 27
2 | OCc1ccc(-c2ccc3c(nnn3CC3CC3)c2C(F)(F)F)cc1 [Example 2, {4-[1-(cyclopropylmethyl)-4-(trifluoromethyl)-1H-benzotriazol-5-yl]phenyl}methanol] | 11
3 | COC(=O)c1ccc(-c2ccc3c(nnn3CC3CC3)c2C(F)(F)F)c(F)c1 [Example 3, methyl 4-[1-(cyclopropylmethyl)-4-(trifluoromethyl)-1H-benzotriazol-5-yl]-3-fluorobenzoate] | 15
4 | OCC(O)c1ccc(-c2ccc3c(nnn3CC3CC3)c2C(F)(F)F)c(F)n1 (centres unmarked) [Example 4, 1-{5-[1-(cyclopropylmethyl)-4-(trifluoromethyl)-1H-benzotriazol-5-yl]-6-fluoropyridin-2-yl}ethane-1,2-diol] | 130
5 | CC(O)c1ccc(-c2ccc3c(nnn3CC3CC3)c2C(F)(F)F)cc1 (centres unmarked) [Example 5, 1-{4-[1-(cyclopropylmethyl)-4-(trifluoromethyl)-1H-benzotriazol-5-yl]phenyl}ethanol] | 8.3
6 | COC(C)c1ccc(-c2ccc3c(nnn3CC3CC3)c2C(F)(F)F)cc1 (centres unmarked) [Example 6, 1-(cyclopropylmethyl)-5-[4-(1-methoxyethyl)phenyl]-4-(trifluoromethyl)-1H-benzotriazole] | 31
7 | CC(C)(O)c1ccc(-c2ccc3c(nnn3CC3CC3)c2C(F)(F)F)cc1 [Example 7, 2-{4-[1-(cyclopropylmethyl)-4-(trifluoromethyl)-1H-benzotriazol-5-yl]phenyl}propan-2-ol] | 2.1
8 | OC1CCOc2cc(-c3ccc4c(nnn4CC4CC4)c3C(F)(F)F)ccc21 (centres unmarked) [Example 8, 7-[1-(cyclopropylmethyl)-4-(trifluoromethyl)-1H-benzotriazol-5-yl]-3,4-dihydro-2H-chromen-4-ol] | 3.9
